These compounds were tested on redroot pigweed (assay: Test Example 5: herbicidal effect by foliage application, plastic box (Table 20, symbol N)). Details: amount of applied herbicide 320 g/ha; foliage application after 14-day growth; evaluated three weeks after application.
Format: in vivo, redroot pigweed (Amaranthus retroflexus)
Procedure, shortened: (§1)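 Plants sown in sterilized diluvial soil and grown 14 days in a greenhouse at 25° C to 30° C, then sprayed on the foliage with the compound's emulsion diluted in water to a predetermined herbicide amount. Injury to weeds and crops scored three weeks after application on a visual rating scale.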
`CCSc1ccc(-c2sc3c(C)cccc3c2-c2c(O)c(C)nn(C)c2=O)cc1` [4-124] was tested, and the “Herbicidal effect by foliage application, N: redroot pigweed” value was 5 (Herbicidal rate of 90% or more (almost completely withered)).

These compounds were tested on persian speedwell (assay: Test Example 5: herbicidal effect by foliage application, plastic box (Table 20, symbol R)). Details: amount of applied herbicide 320 g/ha; foliage application after 14-day growth; evaluated three weeks after application.
Format: in vivo, Persian speedwell (Veronica persica)
Procedure, shortened: as §1
In the case of `CCSc1ccc(-c2sc3c(C)cccc3c2-c2c(O)c(C)nn(C)c2=O)cc1` [4-124], the “Herbicidal effect by foliage application, R: persian speedwell” value is reported as 5 (Herbicidal rate of 90% or more (almost completely withered)).

The compounds below were run on Japanese bulrush (assay: Test Example 1: herbicidal activity, application before weed generation under submerged conditions (Table 16, symbol B)). Details: amount of applied herbicide 320 g/ha.
Format: in vivo, Japanese bulrush (Schoenoplectus juncoides)
Procedure, shortened: (§2)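 Submerged Wagner pots (alluvial soil, 4 cm water) sown with weed seeds and planted with 2.5-leaf rice seedlings; emulsifiable concentrate diluted in water applied to water surface on sowing day. Held in greenhouse at 25-30 °C; injury scored 0-5 by herbicidal rate after three weeks.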
In the case of `CCSc1ccc(-c2sc3c(C)cccc3c2-c2c(O)c(C)nn(C)c2=O)cc1` [4-124], the “Herbicidal effect, B: Japanese bulrush” value is reported as 3 (Herbicidal rate of 40% or more and less than 70%).

These compounds were tested on lambsquarters (assay: Test Example 5: herbicidal effect by foliage application, plastic box (Table 20, symbol O)). Details: amount of applied herbicide 320 g/ha; foliage application after 14-day growth; evaluated three weeks after application.
Format: in vivo, lambsquarters (Chenopodium album)
Procedure, shortened: as §1
With `CCSc1ccc(-c2sc3c(C)cccc3c2-c2c(O)c(C)nn(C)c2=O)cc1` [4-124] the “Herbicidal effect by foliage application, O: lambsquarters” value was 5 (Herbicidal rate of 90% or more (almost completely withered)).

These compounds were tested on windgrass (assay: Test Example 5: herbicidal effect by foliage application, plastic box (Table 20, symbol L)). Details: amount of applied herbicide 320 g/ha; foliage application after 14-day growth; evaluated three weeks after application.
Format: in vivo, windgrass (Apera spica-venti)
Procedure, shortened: as §1
For `CCSc1ccc(-c2sc3c(C)cccc3c2-c2c(O)c(C)nn(C)c2=O)cc1` [4-124], the “Herbicidal effect by foliage application, L: windgrass” value was 5 (Herbicidal rate of 90% or more (almost completely withered)).

The compounds below were run on southern crabgrass (assay: Test Example 4: herbicidal effect by soil treatment (Table 19, symbol F)). Details: amount of applied herbicide 320 g/ha.
Format: in vivo, southern crabgrass (Digitaria ciliaris)
Procedure, shortened: (§3)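 Seeds were sown in sterilized diluvial soil and covered with about 1.5 cm of soil. An emulsion formulation diluted with water to a predetermined herbicide amount was sprayed evenly onto the soil surface. Plants grew in a greenhouse at 25° C. to 30° C., and the effect was scored three weeks after application using criteria from an earlier test.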
For `CCSc1ccc(-c2sc3c(C)cccc3c2-c2c(O)c(C)nn(C)c2=O)cc1` [4-124], the “Herbicidal effect by soil treatment, F: southern crabgrass” value was 4 (Herbicidal rate of 70% or more and less than 90%).

Each compound was assayed on oval-leafed pondweed (assay: Test Example 2: herbicidal activity, application during weed generation under submerged conditions (Table 17, symbol C)). Details: AAH 320 g/ha; application during weed generation, submerged conditions.
Format: in vivo, oval-leafed pondweed (Monochoria vaginalis)
Procedure, shortened: (§4)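 Alluvial soil in Wagner pots was flooded to 4 cm depth and sown with the three weeds together; pots were kept in a greenhouse at 25° C. to 30° C. At the one to two leaf stage, an emulsion formulation diluted in water to a set rate went onto the water surface; scored three weeks later.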
`CCSc1ccc(-c2sc3c(C)cccc3c2-c2c(O)c(C)nn(C)c2=O)cc1` [4-124] was tested, and the “herbicidal effect rating, C: oval-leafed pondweed” value was 0 (Herbicidal rate of 5% or less (almost no effect)).

These compounds were tested on blackgrass (assay: Test Example 4: herbicidal effect by soil treatment (Table 19, symbol J)). Details: amount of applied herbicide 320 g/ha.
Format: in vivo, blackgrass (Alopecurus myosuroides)
Procedure, shortened: as §3
`CCSc1ccc(-c2sc3c(C)cccc3c2-c2c(O)c(C)nn(C)c2=O)cc1` [4-124] was tested, and the “Herbicidal effect by soil treatment, J: blackgrass” value was 2 (Herbicidal rate of 20% or more and less than 40%).

Each compound was assayed on southern crabgrass (assay: Test Example 5: herbicidal effect by foliage application, plastic box (Table 20, symbol F)). Details: amount of applied herbicide 320 g/ha; foliage application after 14-day growth; evaluated three weeks after application.
Format: in vivo, southern crabgrass (Digitaria ciliaris)
Procedure, shortened: as §1
`CCSc1ccc(-c2sc3c(C)cccc3c2-c2c(O)c(C)nn(C)c2=O)cc1` [4-124] was tested, and the “Herbicidal effect by foliage application, F: southern crabgrass” value was 3 (Herbicidal rate of 40% or more and less than 70%).

The compounds below were run on barnyard grass (assay: Test Example 4: herbicidal effect by soil treatment (Table 19, symbol H)). Details: amount of applied herbicide 320 g/ha.
Format: in vivo, barnyard grass (Echinochloa crus-galli)
Procedure, shortened: as §3
With `CCSc1ccc(-c2sc3c(C)cccc3c2-c2c(O)c(C)nn(C)c2=O)cc1` [4-124] the “Herbicidal effect by soil treatment, H: barnyard grass” value was 3 (Herbicidal rate of 40% or more and less than 70%).

The compounds below were run on barnyard grass (assay: Test Example 3: herbicidal effect by foliage application, Wagner pot (Table 18, symbol H)). Details: 320 g/ha.
Format: in vivo, barnyard grass (Echinochloa crus-galli)
Procedure, shortened: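 Plants were sown in alluvial soil held under 0.1–0.5 cm standing water and grown 14 days in a greenhouse at 25–30 °C. An emulsifiable formulation, water-diluted to the set dose, was then sprayed onto the foliage, and effects were scored three weeks later using previously defined criteria.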
In the case of `CCSc1ccc(-c2sc3c(C)cccc3c2-c2c(O)c(C)nn(C)c2=O)cc1` [4-124], the “herbicidal effect on barnyard grass (H)” value is reported as 5 (Herbicidal rate of 90% or more (almost completely withered)).

These compounds were tested on late watergrass (assay: Test Example 2: herbicidal activity, application during weed generation under submerged conditions (Table 17, symbol A)). Details: AAH 320 g/ha; application during weed generation, submerged conditions.
Format: in vivo, late watergrass (Echinochloa oryzicola)
Procedure, shortened: as §4
`CCSc1ccc(-c2sc3c(C)cccc3c2-c2c(O)c(C)nn(C)c2=O)cc1` [4-124] was tested, and the “herbicidal effect rating, A: late watergrass” value was 3 (Herbicidal rate of 40% or more and less than 70%).

These compounds were tested on chickweed (assay: Test Example 4: herbicidal effect by soil treatment (Table 19, symbol P)). Details: amount of applied herbicide 320 g/ha.
Format: in vivo, common chickweed (Stellaria media)
Procedure, shortened: as §3
For `CCSc1ccc(-c2sc3c(C)cccc3c2-c2c(O)c(C)nn(C)c2=O)cc1` [4-124], the “Herbicidal effect by soil treatment, P: chickweed” value was 4 (Herbicidal rate of 70% or more and less than 90%).

Each compound was assayed on late watergrass (assay: Test Example 1: herbicidal activity, application before weed generation under submerged conditions (Table 16, symbol A)). Details: amount of applied herbicide 320 g/ha.
Format: in vivo, late watergrass (Echinochloa oryzicola)
Procedure, shortened: as §2
For `CCSc1ccc(-c2sc3c(C)cccc3c2-c2c(O)c(C)nn(C)c2=O)cc1` [4-124], the “Herbicidal effect, A: late watergrass” value was 4 (Herbicidal rate of 70% or more and less than 90%).

These compounds were tested on wild oat (assay: Test Example 5: herbicidal effect by foliage application, plastic box (Table 20, symbol I)). Details: amount of applied herbicide 320 g/ha; foliage application after 14-day growth; evaluated three weeks after application.
Format: in vivo, wild oat (Avena fatua)
Procedure, shortened: as §1
With `CCSc1ccc(-c2sc3c(C)cccc3c2-c2c(O)c(C)nn(C)c2=O)cc1` [4-124] the “Herbicidal effect by foliage application, I: wild oat” value was 4 (Herbicidal rate of 70% or more and less than 90%).

What follows are compounds tested on green foxtail (assay: Test Example 5: herbicidal effect by foliage application, plastic box (Table 20, symbol G)). Details: amount of applied herbicide 320 g/ha; foliage application after 14-day growth; evaluated three weeks after application.
Format: in vivo, green foxtail (Setaria viridis)
Procedure, shortened: as §1
With `CCSc1ccc(-c2sc3c(C)cccc3c2-c2c(O)c(C)nn(C)c2=O)cc1` [4-124] the “Herbicidal effect by foliage application, G: green foxtail” value was 5 (Herbicidal rate of 90% or more (almost completely withered)).
